According to the NIST ThermoML archive (doi:10.1016/j.fluid.2011.01.018):

What was measured:
[1] = 101 kPa, Liquid, Vibrating tube method
[2] = xn = mol fraction of the nth substance listed; conditions: 101 kPa, Liquid, Vibrating tube method

CC(C)CC(C)(C)C [2,2,4-trimethylpentane]
[1]
Conditions	mass density [kg/m3]
293 K	691.88
303 K	683.64
313 K	675.3
323 K	666.84

CC(C)CC(C)(C)C [2,2,4-trimethylpentane] + c1ccccc1
mass density [kg/m3], [2]
Conditions	x2 = 0	x2 = 0.1248	x2 = 0.1642	x2 = 0.3682	x2 = 0.4538	x2 = 0.502	x2 = 0.5388	x2 = 0.6023	x2 = 0.6896	x2 = 0.9443
293 K	691.88	704.06	708.26	733.74	746.53	754.34	760.7	772.44	790.37	859.13
303 K	683.64	695.66	699.8	724.94	737.57	745.27	751.54	763.15	780.86	848.73
313 K	675.3	687.16	691.24	716.05	728.51	736.12	742.33	753.77	771.25	838.26
323 K	666.84	678.53	682.55	707.04	719.33	726.85	732.96	744.28	761.54	827.7

c1ccccc1 [benzene]
[1]
Conditions	mass density [kg/m3]
293 K	878.98
303 K	868.3
313 K	857.57
323 K	846.76

c1ccccc1 [benzene] + C1CCCCC1
[2], x1 = 1
Conditions	mass density [kg/m3]
293 K	878.98
303 K	868.3
313 K	857.57
323 K	846.76

c1ccccc1 [benzene] + CC(C)CC(C)(C)C
[2], x1 = 1
Conditions	mass density [kg/m3]
293 K	878.98
303 K	868.3
313 K	857.57
323 K	846.76

C1CCCCC1 [cyclohexane]
[1]
Conditions	mass density [kg/m3]
293 K	778.54
303 K	769.13
313 K	759.6
323 K	749.94

C1CCCCC1 [cyclohexane] + c1ccccc1
mass density [kg/m3], [2]
Conditions	293 K	303 K	313 K	323 K
x2 = 0	778.54	769.13	759.6	749.94
x2 = 0.1	784.99	775.47	765.87	756.14
x2 = 0.1805	790.71	781.14	771.46	761.67
x2 = 0.2347	794.92	785.3	775.57	765.73
x2 = 0.3029	800.47	790.79	781	771.1
x2 = 0.3801	807.1	797.33	787.47	777.5
x2 = 0.4453	813.09	803.25	793.32	783.27
x2 = 0.5223	820.56	810.63	800.62	790.48
x2 = 0.5814	826.62	816.62	806.53	796.34
x2 = 0.6563	834.72	824.62	814.44	804.14
x2 = 0.7135	841.21	831.03	820.77	810.41
x2 = 0.7654	847.44	837.18	826.83	816.41
x2 = 0.8191	854.16	843.82	833.39	822.89
x2 = 0.8771	861.75	851.31	840.79	830.19
x2 = 0.9161	867.03	856.52	845.95	835.28
